In patent US20060051526A1, “Process for producing cellulose acylate film” (Fuji Photo Film Co., Ltd., priority 2002, published 2006):

Experiments:
Assay type in all cases: physicochemical
[1] = Solubility test of the additive alone in dichloromethane/methanol mixed solvent (visual, after 4 days)
[2] = as above; settings: for Solubility S0 (solids weight concentration at the dissolution limit): CH2Cl2/CH3OH 87/13
Protocol: The solubility of the functional additives was measured as follows.
1. Solutions were prepared by adjusting each concentration in a 50 cc screw cap bottle.
2. Allowed to stand at room temperature for 4 days. Here, the results of the solubility changed between 1 day and 4 days in some cases, and evaluation of the solubility was carried out after 4 days as a time when equilibrium was reached.
3. Samples were prepared in the same manner at other temperatures (20° C., 35° C.), and the solubility after allowing to stand for 4 days was visually inspected.
Predetermined amounts of Example Compounds I-(51) and I-(2) were weighed into a mixed solvent of dichloromethane and methanol, and the solubility was measured by changing the mixing ratio of the organic solvents.
The solubility (solids weight concentration at the dissolution limit was calculated as (C1+C2)/2 when the concentration limit at which it could be dissolved was C1 and the concentration limit at which it could not be dissolved was C2) of the retardation control agent in a mixed solvent having an initial methylene chloride/methanol composition ratio of 87/13 was defined as S0, and the solubility of the retardation control agent when the solvent composition changed, during drying, to 74/26 where the methanol wt % was the maximum was defined as S1. The temperature at which the solubility was measured is denoted by the figure in brackets.

[3] = Measurement of micro heat of solution (multi-purpose calorimeter MPC-110); settings: for Degree of stabilization: Table 15; for Heat of solution ΔH0: solvent alone, 26.0° C.
Protocol: (2 Measurement of Micro Heat of Solution)
The heat of solution (dissolution enthalpy ΔH) of functional additives was measured as follows, using a multi-purpose calorimeter (MPC-110) manufactured by Tokyo Rikou as a micro heat of solution measuring instrument.
1. Solvent liquids and concentrated solutions were prepared beforehand in 1 L bottles.
2. Preparation of ampoule tubes
(1) Additives (powdered solid) were ground by a mortar and the granules were made uniform.
(2) A required amount (252 mg) of the additive to be measured was weighed into an ampoule tube for measurement of the micro heat of solution.
(3) The neck of the ampoule tube was heated sufficiently by a gas burner so as to seal the ampoule tube.
3. 50 g of the prepared solvent liquid or the concentrated solution was weighed into a measuring vessel. This amount was selected as an amount sufficient to immerse the ampoule tube in the solvent liquid when set in the measuring instrument.
4. The ampoule tube was set in the measuring instrument, which was equipped with an ampoule sealing mechanism, the measuring vessel was hermetically sealed with the ampoule sealing mechanism after confirming that the ampoule tube was immersed in the solvent liquid, it was placed in a constant temperature bath (26.0° C.), and stirring was started.
5. After confirming that the measuring instrument placed in the constant temperature bath had reached equilibrium temperature (about 8 to 12 hours) the ampoule tube was broken so as to mix the additive with the solvent liquid or the concentrated solution.
6. The total amount of heat generated was recorded.
7. The Joule's heat generated was measured by applying a known voltage to the measurement system for an appropriate time, and the recorded chart area for each measurement cell was calibrated using a known amount of heat.
8. The heat of solution of the sample was calculated from the Joule's heat and the measured sample area.
Shown in Table 11 are the solvent composition (wt %) and the solids composition (parts by weight) of the mother liquor when measuring the heat of solution, the type of retardation control agent sealed in the ampoule tube (Example Compounds I-(51) or I-(2)), and the results of measurement of the heat of solution.
The identification symbols of elements constituting the system are as follows: a denotes triacetylcellulose/plasticizer, b denotes triacetylcellulose, and c denotes plasticizer. For example, 2-87a denotes that the retardation control agent is the Example Compound I-(2), the solvent composition (wt %) is dichloromethane/methanol=87/13, and the solids constituting the system are triacetylcellulose and the plasticizer.
The heat of solution ΔH0 denotes the heat of solution (heat absorption) generated when there is no solid in the system (before breaking the ampoule tube) and the retardation control agent is dissolved in a solvent alone. […] The solids concentration of the system when saturation starts is defined as the saturation heat of solution solids concentration (wt %).
In all cases, when the solids concentration of the system is increased, the heat of solution either remains unchanged from that at a solids concentration of 0 wt % (the saturation heat of solution solids concentration is 0) or decreases and becomes saturated. […] This degree of stabilization is expressed as ΔH0−ΔHs, which is the decrease in the heat of solution.

[4] = initial 87/13 vs 74/26, at any of 25° C., 20° C., 35° C.
[5] = 87/13, solids a: triacetylcellulose/plasticizer
[6] = 87/13, solids b: triacetylcellulose only
[7] = 87/13, solids c: plasticizer only

Difference S0 − S1 ([1]; 20° C., 87/13 vs 74/26): 15 wt %
Difference S0 − S1 ([1]; 20° C., 92/8 vs 91/9): 0 wt %
Ratio S1/S0 ([1]; 20° C., 92/8 vs 91/9): 1.000
Solubility S1 (solids weight concentration at the dissolution limit) ([1]; 20° C., CH2Cl2/CH3OH 74/26): 12.5 wt %
Solubility S1 (solids weight concentration at the dissolution limit) ([1]; 20° C., CH2Cl2/CH3OH 91/9): 27.5 wt %
Solubility S0 (solids weight concentration at the dissolution limit) ([1]; 20° C., CH2Cl2/CH3OH 92/8): 27.5 wt %
Difference S0 − S1 ([1]; 25° C., 87/13 vs 74/26): 20 wt %
Difference S0 − S1 ([1]; 25° C., 92/8 vs 91/9): 0 wt %
Ratio S1/S0 ([1]; 25° C., 92/8 vs 91/9): 1.000
Solubility S1 (solids weight concentration at the dissolution limit) ([1]; 25° C., CH2Cl2/CH3OH 74/26): 17.5 wt %
Solubility S0 (solids weight concentration at the dissolution limit) ([1]; 25° C., CH2Cl2/CH3OH 87/13): 37.5 wt %
Solubility S1 (solids weight concentration at the dissolution limit) ([1]; 25° C., CH2Cl2/CH3OH 91/9): 37.5 wt %
Solubility S0 (solids weight concentration at the dissolution limit) ([1]; 25° C., CH2Cl2/CH3OH 92/8): 37.5 wt %
Difference S0 − S1 ([1]; 35° C., 92/8 vs 91/9): 0 wt %
Ratio S1/S0 ([1]; 35° C., 92/8 vs 91/9): 1.000
Solubility S1 (solids weight concentration at the dissolution limit) ([1]; 35° C., CH2Cl2/CH3OH 91/9): 27.5 wt %
Solubility S0 (solids weight concentration at the dissolution limit) ([1]; 35° C., CH2Cl2/CH3OH 92/8): 27.5 wt %
Difference in solubility S0−S1 [1, 4]: ≥ 15 wt %
Ratio S1/S0 of the solubility [1, 4]: less than 0.5
Ratio S1/S0 ([2]; 20° C., 87/13 vs 74/26): 0.455
Solubility S0 (solids weight concentration at the dissolution limit) ([2]; 20° C.): 27.5 wt %
Ratio S1/S0 ([2]; 25° C., 87/13 vs 74/26): 0.467
Difference S0 − S1 ([2]; 35° C., 87/13 vs 74/26): 15 wt %
Ratio S1/S0 ([2]; 35° C., 87/13 vs 74/26): 0.455
Solubility S1 (solids weight concentration at the dissolution limit) ([2]; 35° C., CH2Cl2/CH3OH 74/26): 12.5 wt %
Solubility S0 (solids weight concentration at the dissolution limit) ([2]; 35° C.): 27.5 wt %
Degree of stabilization (ΔH0 − ΔHs) ([3]; 50/50, solids a): 0 kcal/mol
Saturation heat of solution solids concentration ([3]; 50/50, solids a): 0 wt %
Heat of solution ΔHs ([3]; 50/50, solids a: triacetylcellulose/plasticizer): 4.25 kcal/mol
Degree of stabilization (ΔH0 − ΔHs) ([3]; 74/26, solids a): 0 kcal/mol
Saturation heat of solution solids concentration ([3]; 74/26, solids a): 0 wt %
Heat of solution ΔHs ([3]; 74/26, solids a: triacetylcellulose/plasticizer): 4.56 kcal/mol
Degree of stabilization (ΔH0 − ΔHs) [3, 5]: 0.5 kcal/mol
Saturation heat of solution solids concentration [3, 5]: 5 wt %
Heat of solution ΔHs ([3]; 87/13, solids a: triacetylcellulose/plasticizer (TPP/BDP)): 4.35 kcal/mol
Degree of stabilization (ΔH0 − ΔHs) [3, 6]: 0.6 kcal/mol
Heat of solution ΔHs [3, 6]: 4.25 kcal/mol
Saturation heat of solution solids concentration [3, 6]: 5 wt %
Degree of stabilization (ΔH0 − ΔHs) [3, 7]: 0 kcal/mol
Heat of solution ΔHs [3, 7]: 4.85 kcal/mol
Saturation heat of solution solids concentration [3, 7]: 0 wt %
Degree of stabilization (ΔH0 − ΔHs) ([3]; 92/8, solids a): 0.8 kcal/mol
Saturation heat of solution solids concentration ([3]; 92/8, solids a): 7 wt %
Heat of solution ΔHs ([3]; 92/8, solids a: triacetylcellulose/plasticizer): 4.23 kcal/mol
Degree of stabilization (ΔH0 − ΔHs) ([3]; 100/0, solids a): 1.48 kcal/mol
Saturation heat of solution solids concentration ([3]; 100/0, solids a): 10 wt %
Heat of solution ΔHs ([3]; 100/0, solids a: triacetylcellulose/plasticizer): 3.79 kcal/mol
Degree of stabilization ([3]; dope Table 12, solvent composition 87/13): 0.50 kcal/mol
Degree of stabilization ([3]; dope Table 13, solvent composition 92/8): 0.80 kcal/mol
Degree of stabilization ([3]; dope Table 14, solvent composition 74/26): 0 kcal/mol
Stabilization by solids in the system (in words) ([3]; case c: only the plasticizer present in the system): not stabilized
Heat of solution ΔH0 ([3]; dichloromethane/methanol 50/50 wt %): 4.25 kcal/mol
Heat of solution ΔH0 ([3]; dichloromethane/methanol 74/26 wt %): 4.56 kcal/mol
Heat of solution ΔH0 ([3]; dichloromethane/methanol 87/13 wt %): 4.85 kcal/mol
Heat of solution ΔH0 ([3]; dichloromethane/methanol 92/8 wt %): 5.03 kcal/mol
Heat of solution ΔH0 ([3]; dichloromethane/methanol 100/0 wt %): 5.27 kcal/mol
Structure (SMILES): Cc1cccc(Nc2nc(Nc3cccc(C)c3)nc(Nc3cccc(C)c3)n2)c1 [Example Compound I-(51)]
